Measurements taken from patent publication US20060069132A1, “Azolecarboxamide herbicides” (priority 2004, published 2006).
Where two headings read alike, the source gives them in different places.

How the values were obtained:
giant foxtail = assay: Test A pre-/postemergence herbicide test; format: in vivo, Setaria faberi; settings: for pest or weed control at 125 g/ha / pest or weed control at 500 g/ha: Setaria faberi, 240 h, read-out: Foxtail, Giant plant response rating; for pest or weed control at 125 g/ha: 125 g ai/ha
How it was run: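 Visual injury rating on a 0–100 scale (0 no effect, 100 complete control) versus untreated controls, about ten days after treatment in greenhouse. Pre: directed soil spray onto seeded sandy loam. Post: spray to runoff on plants 2–10 cm tall at one- to two-leaf stage.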

morningglory = assay: Test C pre-/postemergence herbicide test; format: in vivo, Ipomoea coccinea; design: key to Plant response rating, Morningglory: 0 = no effect, 100 = complete control
Excerpt: (§1) Seeds of plant species selected from bermudagrass (Cynodon dactylon (L.) Pers.), Surinam grass (Urochloa decumbens (Staph) R. D. Webster, previously named Brachiaria decumbens Stapf), cocklebur (Xanthium strumarium L.), corn (Zea mays L.), large crabgrass (Digitaria sanguinalis (L.) Scop.), woolly cupgrass (Eriochloa villosa (Thunb.) Kunth), giant foxtail (Setaria faberi Herrm.), goosegrass (Eleusine indica (L.) Gaertn.), johnsongrass (Sorghum halepense (L.) Pers.), kochia (Kochia scoparia (L.) Schrad.), lambsquarters (Chenopodium album L.), morningglory (Ipomoea coccinea L.), eastern black nightshade (Solanum ptycanthum Dunal), yellow nutsedge (Cyperus esculentus L.), pigweed (Amaranthus retroflexus L.), common ragweed (Ambrosia elatior L.), soybean (Glycine max (L.) Merr.), common (oilseed) sunflower (Helianthus annuus L.) and velvetleaf (Abutilon theophrasti Medik.) were planted and treated preemergence with test chemicals formulated in a non-phytotoxic solvent mixture which included a surfactant.
(§2) At the same time, plants selected from these crop and weed species and also winter barley (Hordeum vulgare L.), blackgrass (Alopecurus myosuroides Huds.), canarygrass (Phalaris minor Retz.), chickweed (Stellaria media (L.) Vill.), downy bromegrass (Bromus tectorum L.), green foxtail (Setaria viridis (L.) Beauv.), Italian ryegrass (Lolium multiflorum Lam.), wheat (Triticum aestivum L.), wild oat (Avenafatua L.) and windgrass (Apera spica-venti (L.) Beauv.) were treated with postemergence applications of some of the test chemicals formulated in the same manner. Plants ranged in height from 2 to 18 cm (1- to 4-leaf stage) for postemergence treatments. Plant species in the flooded paddy test consisted of rice (Oryza sativa), smallflower umbrella sedge (Cyperus difformis L.), ducksalad (Heteranthera limosa (Sw.) Willd.) and barnyardgrass (Echinochloa crus-galli (L.) Beauv.) grown to the 2-leaf stage for testing. Treated plants and controls were maintained in a greenhouse for 12 to 14 days, after which time all species were compared to controls and visually evaluated. Plant response ratings, summarized in Table C, are based on a scale of 0 to 100 where 0 is no effect and 100 is complete control. A dash (-) response means no test result.

common ragweed = assay: Test C pre-/postemergence herbicide test; format: in vivo, Ambrosia elatior; design: key to Plant response rating, Ragweed: 0 = no effect, 100 = complete control; settings: for Plant response rating (0 = no effect, 100 = complete control), Ragweed: 125 g ai/ha
Excerpt: as §1, §2

[1] = Postemergence, 500 g ai/ha, 0 to 100 scale, 0 no effect, 100 complete control
[2] = Postemergence, 2000 g ai/ha, 0 to 100 scale, 0 no effect, 100 complete control
[3] = Preemergence, 2000 g ai/ha, visual rating, 0 to 100 scale (0 no effect, 100 complete control)
[4] = preemergence, 500 g ai/ha, visual injury, 0 to 100 scale (0 no effect, 100 complete control)
[5] = 62 g ai/ha, preemergence, scale 0 to 100
[6] = 125 g ai/ha, scale 0 (no effect) to 100 (complete control), visual, 12 to 14 days, preemergence
[7] = 250 g ai/ha, scale 0-100, preemergence
[8] = 500 g ai/ha, scale 0 to 100 (0 no effect, 100 complete control), visual, 12 to 14 days, preemergence

Structure (SMILES): C=CCN(C)C(=O)c1cccc(NC(=O)c2cc(C(C)(C)C)nn2CC)c1 [Compound 285]
- Foxtail, Giant plant response rating (giant foxtail; [1]): 25
- Plant response rating, Foxtail, Giant (giant foxtail; [2]): 55
- Foxtail, Giant plant response rating (giant foxtail; [3]): 90
- Foxtail, Giant plant response rating (giant foxtail; [4]): 60

Structure (SMILES): CCn1nc(C(C)(C)C)cc1C(=S)Nc1cc(C(=S)N(C)C)ccc1F [Compound 305]
- Plant response rating, Morningglory (morningglory; [5]): 0
- Plant response rating, Morningglory (morningglory; [6]): 0
- Plant response rating, Morningglory (morningglory; [7]): 5
- Plant response rating, Morningglory (morningglory; [8]): 10
- Plant response rating, Ragweed (common ragweed; [5]): 10
- Plant response rating, Ragweed (common ragweed; [7]): 85
- Plant response rating, Ragweed (common ragweed; [8]): 100

Structure (SMILES): CCNC(=O)c1cccc(NC(=O)c2cc(C3(C)CC3)nn2CC)c1 [Compound 306]
- Plant response rating, Morningglory (morningglory; [5]): 5
- Plant response rating, Morningglory (morningglory; [6]): 5
- Plant response rating, Morningglory (morningglory; [7]): 10
- Plant response rating, Morningglory (morningglory; [8]): 20
- Plant response rating, Ragweed (common ragweed; [5]): 0
- Plant response rating, Ragweed (common ragweed; [8]): 100

Structure (SMILES): CCOC(=O)c1cccc(NC(=O)c2cc(C(C)(C)C)nn2C)n1 [Compound 313]
- Foxtail, Giant plant response rating (giant foxtail; [1]): 70
- Plant response rating, Foxtail, Giant (giant foxtail; [2]): 80
- Foxtail, Giant plant response rating (giant foxtail; [3]): 90
- Foxtail, Giant plant response rating (giant foxtail; [4]): 75

Structure (SMILES): CCn1nc2c(c1C(=O)Nc1cc(C(=O)N(C)C)ccc1F)CCC2(C)C [Compound 352, N-[5-[(dimethylamino)carbonyl]-2-fluorophenyl]-2-ethyl-2,4,5,6-tetrahydro-6,6-dimethyl-3-cyclopentapyrazolecarboxamide]
- Plant response rating (0 = no effect, 100 = complete control), Morningglory (morningglory; 125 g ai/ha, preemergence): 5
- pest or weed control at 62 g/ha (morningglory; Ipomoea, pre-emergence, 62 g ai/ha, preemergence, scale 0 to 100, read-out: Plant response rating, Morningglory): 5%
- pest or weed control at 250 g/ha (morningglory; Ipomoea, pre-emergence, 250 g ai/ha, scale 0-100, read-out: Plant response rating, Morningglory): 40%
- pest or weed control at 500 g/ha (morningglory; Ipomoea, pre-emergence, 500 g ai/ha, scale 0 to 100 (0 no effect, 100 complete control), visual, 12 to 14 days, read-out: Plant response rating, Morningglory): 60%
- Plant response rating (0 = no effect, 100 = complete control), Ragweed (common ragweed; preemergence): 40
- pest or weed control at 62 g/ha (common ragweed; Ambrosia artemisiifolia, pre-emergence, 62 g ai/ha, preemergence, scale 0 to 100, read-out: Plant response rating, Ragweed): 0%
- pest or weed control at 250 g/ha (common ragweed; Ambrosia artemisiifolia, pre-emergence, 250 g ai/ha, scale 0-100, read-out: Plant response rating, Ragweed): 50%
- pest or weed control at 500 g/ha (common ragweed; Ambrosia artemisiifolia, pre-emergence, 500 g ai/ha, scale 0 to 100 (0 no effect, 100 complete control), visual, 12 to 14 days, read-out: Plant response rating, Ragweed): 60%

Structure (SMILES): CCc1nn(C(C)(C)C)nc1C(=S)Nc1cccc(C(=S)N(C)C)c1 [Compound 396]
- Plant response rating, Morningglory (morningglory; [5]): 0
- Plant response rating (0 = no effect, 100 = complete control), Morningglory (morningglory; 125 g ai/ha, preemergence): 0
- Plant response rating, Morningglory (morningglory; [7]): 25
- Plant response rating, Morningglory (morningglory; [8]): 70
- Plant response rating, Ragweed (common ragweed; [5]): 0
- Plant response rating (0 = no effect, 100 = complete control), Ragweed (common ragweed; preemergence): 0
- Plant response rating, Ragweed (common ragweed; [7]): 80
- Plant response rating, Ragweed (common ragweed; [8]): 95

Structure (SMILES): CCNC(=O)c1cccc(NC(=O)c2nc(C(C)(C)C)nn2CC)c1 [Compound 446, 3-(1,1-dimethylethyl)-1-ethyl-N-[3-[(ethylamino)carbonyl]phenyl]-1H-1,2,4-triazole-5-carboxamide]
- pest or weed control at 125 g/ha (giant foxtail; post-emergence, Postemergence, 0 to 100 scale, 0 no effect, 100 complete control): 75%
- pest or weed control at 500 g/ha (giant foxtail; post-emergence, Postemergence, 500 g ai/ha, 0 to 100 scale, 0 no effect, 100 complete control): 90%
- pest or weed control at 125 g/ha (giant foxtail; pre-emergence, preemergence, visual injury, 0 to 100 scale (0 no effect, 100 complete control)): 70%
- pest or weed control at 500 g/ha (giant foxtail; pre-emergence, preemergence, 500 g ai/ha, visual injury, 0 to 100 scale (0 no effect, 100 complete control)): 95%
